Reference: patent US20060029967A1, “Assay for nitrous oxide neurologic syndrome” (priority 2002, published 2006)

What was measured:
[1] = molecular target: T1, methionine synthase (Homo sapiens, UniProt Q99707); settings: cited from earlier work
[2] = molecular target: T1, methionine synthase; test: Case report: infant with MTHFR deficiency anesthetized with nitrous oxide; format: in vivo; parameters: from tissue; host or cells: patient in vivo; no tissue assayed for methionine synthase; settings: infant with inherited MTHFR deficiency; two anesthetics with 60% nitrous oxide and 0.75% halothane (45 and 270 minutes)
Excerpt: A child discovered to have 5,10-methylenetetrahydrofolate reductase (MTHFR, […]) deficiency (OMIM #236250) died after two anesthetics using nitrous oxide (Beckman, D. R., et al., Birth Defects Orig. Artic. Ser. 23:47-64, 1987). MTHFR catalyzes the synthesis of 5-methyltetrahydrofolate. Sequence analysis of RNA transcripts and genomic DNA from the patient and family members, together with direct assays of fibroblast MTHFR activity, reveal that the enzyme deficiency was caused by a novel MTHFR mutation (1755→A) which changes conserved methionine 581 to an isoleucine, co-inherited with two common MTHFR polymorphisms (677C→T, 1298A→C) each associated with depressed enzyme function. (Frosst, P., et al., Nat. Genet. 10:111-3, 1995; van der Put, N. M., et al., Am. J. Hum. Genet. 62:1044-51, 1998).
The patient was normal […] when a mass was noted on the left lower extremity. Although not recognized prior to the patient's surgery, both the parent and uncle have serum total homocysteine levels >30.0 μM (normal 5.4-13.9 μM). On life-long, high dose vitamin B supplements, the proband's sibling has a homocysteine level of 4.3 μM. Neither the […] nor the sibling has received nitrous oxide. […]

[3] = molecular target: T1, methionine synthase; settings: recovery in cultured cells; de novo synthesis of the enzyme required to restore activity; cited from earlier work
[4] = molecular target: methionine synthase (Mus musculus, UniProt A6H5Y3); settings: mice exposed to nitrous oxide; cited from earlier work
Chain of methionine synthase (Mus musculus, UniProt A6H5Y3) (A6H5Y3 whole entry): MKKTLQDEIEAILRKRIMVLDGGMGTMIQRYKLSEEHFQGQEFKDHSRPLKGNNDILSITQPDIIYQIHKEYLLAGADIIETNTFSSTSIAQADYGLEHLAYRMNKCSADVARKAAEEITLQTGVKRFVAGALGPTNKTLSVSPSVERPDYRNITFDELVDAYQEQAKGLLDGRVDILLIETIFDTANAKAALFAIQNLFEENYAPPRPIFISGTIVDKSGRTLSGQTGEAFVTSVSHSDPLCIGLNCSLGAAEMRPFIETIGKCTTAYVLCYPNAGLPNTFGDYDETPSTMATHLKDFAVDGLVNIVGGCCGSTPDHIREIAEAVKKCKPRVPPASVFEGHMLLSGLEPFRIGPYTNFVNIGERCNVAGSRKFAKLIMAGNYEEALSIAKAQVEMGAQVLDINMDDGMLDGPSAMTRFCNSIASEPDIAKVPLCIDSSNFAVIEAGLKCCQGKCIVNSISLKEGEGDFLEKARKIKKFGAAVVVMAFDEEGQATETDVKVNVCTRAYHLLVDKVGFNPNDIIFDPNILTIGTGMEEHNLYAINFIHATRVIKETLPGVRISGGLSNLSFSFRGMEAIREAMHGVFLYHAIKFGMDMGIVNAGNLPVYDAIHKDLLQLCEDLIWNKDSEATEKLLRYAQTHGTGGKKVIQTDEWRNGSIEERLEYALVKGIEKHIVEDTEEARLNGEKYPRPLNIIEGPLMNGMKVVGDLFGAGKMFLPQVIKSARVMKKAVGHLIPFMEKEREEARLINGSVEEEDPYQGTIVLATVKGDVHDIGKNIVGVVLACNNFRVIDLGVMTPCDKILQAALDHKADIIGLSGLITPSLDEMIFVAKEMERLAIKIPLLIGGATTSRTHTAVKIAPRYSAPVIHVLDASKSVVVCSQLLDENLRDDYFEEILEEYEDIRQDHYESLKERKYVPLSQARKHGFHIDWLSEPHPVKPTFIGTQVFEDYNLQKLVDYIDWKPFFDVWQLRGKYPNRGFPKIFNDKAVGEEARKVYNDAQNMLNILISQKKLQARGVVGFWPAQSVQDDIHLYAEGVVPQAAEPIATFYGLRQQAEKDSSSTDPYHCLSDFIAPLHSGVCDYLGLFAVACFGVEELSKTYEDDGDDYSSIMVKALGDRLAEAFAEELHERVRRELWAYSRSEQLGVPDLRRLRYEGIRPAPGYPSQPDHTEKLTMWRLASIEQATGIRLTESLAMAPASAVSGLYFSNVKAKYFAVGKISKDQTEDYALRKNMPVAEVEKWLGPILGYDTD

[5] = test system: methionine synthase; settings: pigs exposed to nitrous oxide; cited from earlier work
[6] = molecular target: methionine synthase (Rattus norvegicus, UniProt Q9Z2Q4); settings: rats exposed to nitrous oxide; cited from earlier work
Chain of methionine synthase (Rattus norvegicus, UniProt Q9Z2Q4) (Q9Z2Q4 whole entry): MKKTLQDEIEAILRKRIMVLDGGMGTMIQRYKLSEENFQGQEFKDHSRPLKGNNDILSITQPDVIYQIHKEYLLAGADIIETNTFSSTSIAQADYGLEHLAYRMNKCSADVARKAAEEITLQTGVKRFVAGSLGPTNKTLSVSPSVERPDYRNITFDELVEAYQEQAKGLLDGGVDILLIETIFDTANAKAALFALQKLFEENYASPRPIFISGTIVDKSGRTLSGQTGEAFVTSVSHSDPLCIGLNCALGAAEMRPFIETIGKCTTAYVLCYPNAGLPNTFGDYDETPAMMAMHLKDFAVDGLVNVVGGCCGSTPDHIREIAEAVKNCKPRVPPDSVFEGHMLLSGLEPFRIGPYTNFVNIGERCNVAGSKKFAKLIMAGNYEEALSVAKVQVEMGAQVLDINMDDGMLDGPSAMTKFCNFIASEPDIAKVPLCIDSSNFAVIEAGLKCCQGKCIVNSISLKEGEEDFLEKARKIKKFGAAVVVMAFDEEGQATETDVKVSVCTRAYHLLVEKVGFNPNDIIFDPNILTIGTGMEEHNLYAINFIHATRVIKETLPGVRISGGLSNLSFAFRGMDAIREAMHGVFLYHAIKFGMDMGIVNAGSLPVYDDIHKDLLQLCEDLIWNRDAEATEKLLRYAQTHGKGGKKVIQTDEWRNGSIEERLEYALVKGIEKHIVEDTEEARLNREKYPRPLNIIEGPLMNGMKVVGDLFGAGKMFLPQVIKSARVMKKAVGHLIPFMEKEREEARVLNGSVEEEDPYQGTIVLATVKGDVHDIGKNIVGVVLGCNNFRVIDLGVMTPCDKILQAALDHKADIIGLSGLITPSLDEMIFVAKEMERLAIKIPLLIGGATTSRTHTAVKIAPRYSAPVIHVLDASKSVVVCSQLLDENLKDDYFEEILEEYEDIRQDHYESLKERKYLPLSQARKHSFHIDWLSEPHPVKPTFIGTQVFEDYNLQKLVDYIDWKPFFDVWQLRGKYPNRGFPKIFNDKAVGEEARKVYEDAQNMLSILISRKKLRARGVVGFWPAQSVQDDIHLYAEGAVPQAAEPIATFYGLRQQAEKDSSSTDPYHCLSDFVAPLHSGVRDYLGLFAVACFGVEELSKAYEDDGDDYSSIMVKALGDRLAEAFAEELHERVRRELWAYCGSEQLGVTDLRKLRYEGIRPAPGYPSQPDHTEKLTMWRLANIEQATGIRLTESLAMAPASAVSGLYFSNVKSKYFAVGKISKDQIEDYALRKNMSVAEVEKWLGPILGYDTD

T1 sequence (Q99707 whole entry): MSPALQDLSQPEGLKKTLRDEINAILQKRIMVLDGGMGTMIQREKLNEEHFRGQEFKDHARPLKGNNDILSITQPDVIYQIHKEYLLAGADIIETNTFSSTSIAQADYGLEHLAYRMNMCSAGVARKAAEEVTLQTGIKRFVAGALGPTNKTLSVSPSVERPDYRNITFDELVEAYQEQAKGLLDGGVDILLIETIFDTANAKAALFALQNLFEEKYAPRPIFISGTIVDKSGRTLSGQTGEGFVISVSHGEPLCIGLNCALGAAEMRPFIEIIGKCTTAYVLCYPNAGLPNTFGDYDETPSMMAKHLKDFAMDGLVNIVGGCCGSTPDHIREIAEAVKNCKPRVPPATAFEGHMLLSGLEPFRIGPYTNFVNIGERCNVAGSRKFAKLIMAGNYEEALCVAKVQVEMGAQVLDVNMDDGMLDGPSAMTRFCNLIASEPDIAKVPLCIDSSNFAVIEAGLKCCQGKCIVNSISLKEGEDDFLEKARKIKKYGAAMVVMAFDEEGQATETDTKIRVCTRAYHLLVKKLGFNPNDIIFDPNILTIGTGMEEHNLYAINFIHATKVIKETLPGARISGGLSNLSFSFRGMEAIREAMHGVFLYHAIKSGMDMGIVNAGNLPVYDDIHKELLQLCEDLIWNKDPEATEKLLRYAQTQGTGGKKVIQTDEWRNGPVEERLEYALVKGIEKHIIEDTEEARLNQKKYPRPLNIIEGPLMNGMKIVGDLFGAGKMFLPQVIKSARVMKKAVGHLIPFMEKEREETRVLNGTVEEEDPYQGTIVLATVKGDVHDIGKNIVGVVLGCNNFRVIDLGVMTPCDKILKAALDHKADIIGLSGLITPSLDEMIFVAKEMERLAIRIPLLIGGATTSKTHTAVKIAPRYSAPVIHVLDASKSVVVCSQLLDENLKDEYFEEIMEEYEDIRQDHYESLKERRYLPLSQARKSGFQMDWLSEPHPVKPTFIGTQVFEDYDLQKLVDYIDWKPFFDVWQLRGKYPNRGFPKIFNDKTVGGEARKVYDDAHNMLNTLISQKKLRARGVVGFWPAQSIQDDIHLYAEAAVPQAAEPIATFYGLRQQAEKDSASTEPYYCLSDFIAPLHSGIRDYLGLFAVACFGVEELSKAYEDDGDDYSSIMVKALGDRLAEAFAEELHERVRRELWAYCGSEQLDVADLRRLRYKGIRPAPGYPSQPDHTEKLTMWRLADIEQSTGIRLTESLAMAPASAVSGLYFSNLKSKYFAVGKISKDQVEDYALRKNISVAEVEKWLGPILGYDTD

SMILES: [N-]=[N+]=O [nitrous oxide]
- Residual methionine synthase activity ([1]; following greater than 200 minutes of nitrous oxide administration): approaches zero
- mean half-time of inactivation of methionine synthase ([1]; nitrous oxide administration): 46 min
- clinical outcome after nitrous oxide anesthesia [2]: caused the patient's death
- nature of nitrous oxide-mediated inhibition [3]: irreversible
- delayed recovery of enzyme activity [4]: ≥ 4 days
- delayed recovery of enzyme activity [5]: ≥ 4 days
- delayed recovery of enzyme activity [6]: ≥ 4 days
